Reference: patent US20230322815A1, “NOVEL COMPOUNDS AND THERAPEUTIC USES THEREOF” (University of Huddersfield, priority 2020, published 2023)

Assays:
Src = Src (Homo sapiens, UniProt P12931); assay: Cell-free kinase screen; type: biochemical; settings: 10 μM complex
Procedure: FIG. 9. Effects of [L2Zn3]^6+ and [L2Cu3]^6+ on the activity of purified human kinases. a,b, Percentage inhibition of the indicated kinases by [L2Zn3]^6+ (a) and [L2Cu3]^6+ (b) respectively at a concentration of 10 μM; full results are presented in the ESI. c,d, Kinases whose activity is stimulated by [L2Zn3]^6+ (c) or [L2Cu3]^6+ (d) complexes. e,f, Kinome map showing kinases inhibited (red) or stimulated (green) by [L2Zn3]^6+ (e) or [L2Cu3]^6+ (f). III ustration reproduced courtesy of Cell Signalling Technology Inc (www.cellsignal.com)
FIG. 16. The effect of [L2Zn3]^6+ and [L2Cu3]^6+ on the activity of recombinant human kinases. The compounds were submitted to the MRC Protein Phosphorylation and Ubiquitination Unit International Centre for Kinase Profiling (University of Dundee) and tested at a concentration of 10 μM against 140 human kinases (Premier Screen).
Given the ability of the Zn^2+ complex to dephosphorylate amino acids serine, tyrosine and threonine (FIG. 6) and the Cu^2+ complex to bind phenyl phosphate (FIG. 3), it was examined whether the complexes affect the activity of kinases. This was assessed in a cell-free screen of 140 kinases using purified recombinant human kinases and substrate peptides incubated in the presence of ^33P ATP and 10 μM complex or solvent control. […]

ARPE19 non-cancer cells = assay: Cellular ATP levels; type: cell-based, human; settings: 100 μM, 20 h
Procedure: FIG. 20. The effects of [L2Cu3]^6+, [L2Zn3]^6+ and [L2Mn3]^6+ on cellular ATP levels in the ARPE19 non-cancer and HCT116 p53^+/+ cancer cells. The effects of 20 h treatment with the indicated concentrations of [L2Cu3]^6+, [L2Zn3]^6+, or [L2Mn3]^6+ on total cellular levels of ATP compared to levels in vehicle control-treated ARPE19 or HCT116^+/+ cells. n=3 biological repeats, students t-test (p values).
Cellular ATP studies: The effects of 20 h treatment with a range of different concentrations of [L2Cu3]^6+, [L2Zn3]^6+ and [L2Mn3]^6+ on total cellular ATP levels in HCT116 p53^+/+ and ARPE19 cells are presented in FIG. 20. Differential effects are observed depending on the metal in the complex, with [L2Mn3]^6+ having the most profound effects on both the HCT116 p53^+/+ cancer and ARPE19 non-cancer cells. 6.25 μM [L2Mn3]^6+ treatment for 20 h reduced ATP levels in the HCT116 p53^+/+ cancer cells to <50% with ATP levels declining less in the ARPE19 non-cancer cells but reaching ˜40% with 100 μM [L2Mn3]^6+ treatment. […] Effects of [L2Cu3]^6+ on ATP levels was much less, with ATP levels in the HCT116 cells reduced to <50% only at the highest concentration of 100 μM.

[1] = test system: HCT116 p53^+/+ cancer cells; assay: Autophagy (CYTO-ID staining, confocal); type: cell-based, human; settings: 3.125 μM, 40 h
Procedure: FIG. 18. The effects of [L2Cu3]^6+, [L2Zn3]^6+ and [L2Mn3]^6+ on cellular vacuole formation and autophagy in the HCT116 p53^+/+ cancer cells. Representative confocal images are shown of HCT116 p53^+/+ cancer cells following 40 h treatment with vehicle control or 3.125 μM [L2Cu3]^6+, [L2Zn3]^6+, or [L2Mn3]^6+.
Autophagy studies: The effects of 3.125 μM [L2Cu3]^6+, [L2Zn3]^6+ and [L2Mn3]^6+ treatments (40 h) on the induction of cellular vacuoles and autophagy in the HCT116 p53^−/−, HCT116 p53^+/+ and ARPE19 cells are presented in FIGS. 17-19 with representative cell images shown. […] In the ARPE19 cells, levels of autophagy were low with all treatments and similar to basal levels in control-treated cells (FIG. 19).

[2] = Phosphatase activity: hydrolysis of phenyl phosphate
Procedure: FIG. 6. Phosphatase activity of [L2Zn3]^6+. ^31P NMR spectra using different substrates including PhOPO3 (spectra A to D), serine phosphate (spectra E to H), threonine phosphate (spectra I to L) and tyrosine phosphate (spectra M to P). Specific details for each ^31P NMR spectra are as follows: Spectra A, E, I and M represent substrate alone (44 hrs incubated @ 37° C.); Spectra B, F, J and N represents [L2Zn3]^6+ plus substrate (t=0 min); Spectra C, G, K and O represents [L2Zn3]^6+ plus substrate incubated @ 37° C. for 19 hours; Spectra D, H, L and […] represents [L2Zn3]^6+ plus substrate incubated @ 37° C. for 44 hours. The ^31P NMR of [L2Zn3(PO4)]^3+ gives a signal at 8.6 ppm.
Only [L2Zn3(PO4)]^3+ was observed, coupled with a rapid yellowing of the solution due to the formation of 4-nitrophenolate.
The rate of substrate hydrolysis is also dependent upon the metal used in the self-assembly process.

Chain of Src (P12931 whole entry): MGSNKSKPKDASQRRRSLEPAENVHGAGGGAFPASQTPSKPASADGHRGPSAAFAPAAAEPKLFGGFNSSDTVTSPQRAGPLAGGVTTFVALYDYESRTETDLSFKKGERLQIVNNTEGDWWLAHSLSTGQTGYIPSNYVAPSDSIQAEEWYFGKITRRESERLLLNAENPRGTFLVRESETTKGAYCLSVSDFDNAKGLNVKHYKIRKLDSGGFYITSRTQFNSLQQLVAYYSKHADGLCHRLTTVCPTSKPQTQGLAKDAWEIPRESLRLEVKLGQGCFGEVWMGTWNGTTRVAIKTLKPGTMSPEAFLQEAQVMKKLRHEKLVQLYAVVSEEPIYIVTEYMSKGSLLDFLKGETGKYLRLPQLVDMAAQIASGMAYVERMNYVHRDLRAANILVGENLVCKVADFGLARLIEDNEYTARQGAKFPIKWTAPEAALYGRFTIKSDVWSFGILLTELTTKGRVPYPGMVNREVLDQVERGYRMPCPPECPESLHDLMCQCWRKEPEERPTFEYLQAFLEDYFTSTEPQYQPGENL

SMILES: [Zn+2].[Zn+2].[Zn+2].c1ccc(-c2csc(NCCN(CCNc3nc(-c4ccccn4)cs3)CCNc3nc(-c4ccccn4)cs3)n2)nc1.c1ccc(-c2csc(NCCN(CCNc3nc(-c4ccccn4)cs3)CCNc3nc(-c4ccccn4)cs3)n2)nc1 [[L2Zn3]^6+]
- effect on Src kinase activity in the kinase screen (Src): activity was increased
- ATP levels compared to vehicle control (ARPE19 non-cancer cells): > 70%
- induction of autophagy [1]: barely detectable
- hydrolysis of PhOPO3^2− by 31P NMR ([2]; 25%:75% DMSO and buffered H2O (HEPES pH 7.5), 37° C., after 44 hrs): virtually no signal corresponding to PhOPO3^2− is observed

SMILES: [Cu+2].[Cu+2].[Cu+2].c1ccc(-c2csc(NCCN(CCNc3nc(-c4ccccn4)cs3)CCNc3nc(-c4ccccn4)cs3)n2)nc1.c1ccc(-c2csc(NCCN(CCNc3nc(-c4ccccn4)cs3)CCNc3nc(-c4ccccn4)cs3)n2)nc1 [[L2Cu3]^6+]
- effect on Src kinase activity in the kinase screen (Src): activity was increased
- hydrolysis of phenyl phosphate ([2]; solid-state and ESI-MS data): does not hydrolyse phenyl phosphate
